Earlier results as cited in patent US7527814B2, “Process for the isolation of calliterpenone” (Council of Scientific and Industrial Research, priority 2006, dated 2009).

Legend:
[1] = test system: growth retardant effects produced by allelochemicals; conditions: Singh et al., U.S. Pat. No. 6,673,749 (2004)
[2] = test system: plant growth; conditions: if used in a particular method

CC1(C)C(=O)CC[C@@]2(C)[C@H]1CC[C@@]13C[C@H](CC[C@@H]12)[C@@](O)(CO)C3 [calliterpenone, 16α,17 dihydroxy-3-oxo phyllocladane]
effect on growth retardant effects produced by allelochemicals [1]: antagonizes the growth retardant effects produced by allelochemicals | plant growth promoting effect compared with GA3 [2]: better plant growth promoting effect than GA3
